{"source": "patent US11147272B2", "about": "“Pyridone compounds and agricultural and horticultural fungicides comprising the same as active ingredients” (MITSUI CHEMICALS AGRO, INC., priority 2017, dated 2021)", "key": {"[1]": {"system": "Blumeria graminis f. sp. hordei", "experiment": "Test Example D: Powdery mildew on barley", "conditions": "for pest or weed control at 250 µg/mL: Blumeria graminis, in Hordeum vulgare, topical"}, "[2]": {"system": "Colletotrichum orbiculare", "experiment": "Test Example H: Anthracnose on cucumber", "conditions": "for Test H control value: 6 to 10 days after inoculation; for pest or weed control at 250 ppm: Colletotrichum orbiculare, in Cucumis sativus, topical"}, "Plasmopara viticola": {"system": "Plasmopara viticola", "experiment": "Test Example G: Downy mildew on vine", "conditions": "for Test G control value: 7 to 10 days after inoculation; for pest or weed control at 250 ppm: Plasmopara viticola, topical"}, "Alternaia brassicicola": {"system": "Alternaia brassicicola", "experiment": "Test Example C: Alternaria sooty spot on cabbage", "format": "in vivo", "conditions": "for pest or weed control at 250 µg/mL: Brassica oleracea, topical", "from_the_text": "Seeds of a test plant (cabbage variety: Shikidori) were planted and cultivated until the cotyledons extended.\n<Control Value> Control value=100{1−(n/3)}"}, "Puccinia recondita": {"system": "Puccinia recondita", "experiment": "Test Example E: Brown rust on wheat", "format": "in vivo", "conditions": "for pest or weed control at 250 µg/mL: Puccinia recondita, topical"}, "Botrytis cinerea": {"system": "Botrytis cinerea", "experiment": "Test Example B: Gray mold on tomato", "conditions": "for pest or weed control at 250 µg/mL: Botrytis cinerea, in Solanum lycopersicum, topical"}, "Phytophthora infestans": {"system": "Phytophthora infestans", "experiment": "whole plant or invertebrate", "format": "in vivo", "conditions": "for pest or weed control at 250 µg/mL: Phytophthora infestans, in Solanum lycopersicum, topical"}, "Magnaporthe grisea": {"system": "Magnaporthe grisea", "experiment": "whole plant or invertebrate", "format": "in vivo", "conditions": "for pest or weed control at 250 µg/mL: Pyricularia oryzae, in Oryza sativa"}, "[3]": {"conditions": "Powdery mildew on barley, control value class"}, "[4]": {"conditions": "Anthracnose on cucumber, 250 ppm spray"}, "[5]": {"conditions": "Downy mildew on vine, 250 ppm spray"}, "[6]": {"conditions": "Alternaria sooty spot on cabbage, control value class"}, "[7]": {"conditions": "Brown rust on wheat, control value class"}, "[8]": {"conditions": "Gray mold on tomato, control value class"}, "[9]": {"conditions": "Late blight on tomato, control value class"}, "[10]": {"conditions": "Blast on rice, control value class"}, "[11]": {"conditions": "250 ppm drug solution sprayed on test plant"}, "[12]": {"conditions": "250 ppm drug solution sprayed (2.5 ml/pot), cucumber Sagami Hanjiro"}, "[13]": {"conditions": "250 ppm drug solution sprayed (2.5 ml/pot), grape Neomuscat"}}, "note": "Like-named read-outs stand apart in the source and are kept apart here."}
{"smiles": "CCCc1ccc(=O)n(C)c1-c1ccc(F)cc1Cl", "note": "[compound 329]", "values": [{"measurement": "Test D control value", "setting": "[1]; [3]", "result": "H (more than 50% control value)"}, {"measurement": "Test H control value", "setting": "[2]; [4]", "result": "L (50% or less control value)"}, {"measurement": "Test G control value", "setting": "Plasmopara viticola; [5]", "result": "L (50% or less control value)"}, {"measurement": "Test C control value", "setting": "Alternaia brassicicola; [6]", "result": "L (50% or less control value)"}, {"measurement": "Test E control value", "setting": "Puccinia recondita; [7]", "result": "H (more than 50% control value)"}, {"measurement": "Test B control value", "setting": "Botrytis cinerea; [8]", "result": "H (more than 50% control value)"}, {"measurement": "Test F control value", "setting": "Phytophthora infestans; [9]", "result": "L (50% or less control value)"}, {"measurement": "Test A control value", "setting": "Magnaporthe grisea; [10]", "result": "L (50% or less control value)"}]}
{"smiles": "CCn1c(-c2ccc(F)cc2Cl)c(C=C(C)C)cc(Cl)c1=O", "note": "[Compound No. 300, 3-chloro-6-(2-chloro-4-fluorophenyl)-1-ethyl-5-(2-methyl-1-propenyl)pyridin-2(1H)-one]", "values": [{"measurement": "pest or weed control at 250 µg/mL", "setting": "[1]; read-out: Test D control value", "result": "> 50", "unit": "%"}, {"measurement": "pest or weed control at 250 ppm", "setting": "[2]; 144 h, read-out: Test H control value", "result": "> 50", "unit": "%"}, {"measurement": "pest or weed control at 250 ppm", "setting": "Plasmopara viticola; 168 h, read-out: Test G control value", "result": "< 50", "unit": "%"}, {"measurement": "pest or weed control at 250 µg/mL", "setting": "Alternaia brassicicola; Alternaria sooty spot on cabbage, control value class, read-out: Test C control value", "result": "> 50", "unit": "%"}, {"measurement": "pest or weed control at 250 µg/mL", "setting": "Puccinia recondita; Brown rust on wheat, control value class, read-out: Test E control value", "result": "> 50", "unit": "%"}, {"measurement": "pest or weed control at 250 µg/mL", "setting": "Botrytis cinerea; read-out: Test B control value", "result": "> 50", "unit": "%"}, {"measurement": "pest or weed control at 250 µg/mL", "setting": "Phytophthora infestans; read-out: Test F control value", "result": "< 50", "unit": "%"}, {"measurement": "pest or weed control at 250 µg/mL", "setting": "Magnaporthe grisea; read-out: Test A control value", "result": "> 50", "unit": "%"}]}
{"smiles": "CCn1c(-c2c(F)cccc2F)c(C(C)(F)CC)cc(Cl)c1=O", "note": "(centres unmarked) [Compound No. 30, 3-chloro-6-(2,6-difluorophenyl)-1-ethyl-5-(2-fluorobutan-2-yl)pyridin-2(1H)-one]", "values": [{"measurement": "pest or weed control at 250 µg/mL", "setting": "[1]; read-out: Test D control value class", "result": "> 50", "unit": "%"}, {"measurement": "pest or weed control at 250 ppm", "setting": "[2]; read-out: Test H control value class", "result": "> 50", "unit": "%"}, {"measurement": "pest or weed control at 250 ppm", "setting": "Plasmopara viticola; read-out: Test G control value class", "result": "> 50", "unit": "%"}, {"measurement": "pest or weed control at 250 µg/mL", "setting": "Alternaia brassicicola; Alternaria sooty spot on cabbage, class of control value, read-out: Test C control value class", "result": "> 50", "unit": "%"}, {"measurement": "pest or weed control at 250 µg/mL", "setting": "Puccinia recondita; Brown rust on wheat, class of control value, read-out: Test E control value class", "result": "> 50", "unit": "%"}, {"measurement": "pest or weed control at 250 µg/mL", "setting": "Botrytis cinerea; read-out: Test B control value class", "result": "> 50", "unit": "%"}, {"measurement": "pest or weed control at 250 µg/mL", "setting": "Phytophthora infestans; read-out: Test F control value class", "result": "< 50", "unit": "%"}, {"measurement": "pest or weed control at 250 µg/mL", "setting": "Magnaporthe grisea; read-out: Test A control value class", "result": "> 50", "unit": "%"}]}
{"smiles": "CCCc1cc(Br)c(=O)n(CCC)c1-c1c(F)cc(OC)cc1F", "note": "[compound 444]", "values": [{"measurement": "Test D control value", "setting": "[1]; [11]", "result": "L (50% or less control value)"}, {"measurement": "Test H control value", "setting": "[2]; [12]", "result": "H (more than 50% control value)"}, {"measurement": "Test G control value", "setting": "Plasmopara viticola; [13]", "result": "H (more than 50% control value)"}, {"measurement": "Test C control value", "setting": "Alternaia brassicicola; [11]", "result": "H (more than 50% control value)"}, {"measurement": "Test E control value", "setting": "Puccinia recondita; [11]", "result": "H (more than 50% control value)"}, {"measurement": "Test B control value", "setting": "Botrytis cinerea; [11]", "result": "H (more than 50% control value)"}, {"measurement": "Test F control value", "setting": "Phytophthora infestans; [11]", "result": "L (50% or less control value)"}, {"measurement": "Test A control value", "setting": "Magnaporthe grisea; [11]", "result": "L (50% or less control value)"}]}
{"smiles": "CCn1c(-c2c(F)cc(F)cc2F)c(CO)ccc1=O", "note": "[compound 478]", "values": [{"measurement": "Test D control value", "setting": "[1]; [11]", "result": "H (more than 50% control value)"}, {"measurement": "Test H control value", "setting": "[2]; [12]", "result": "L (50% or less control value)"}, {"measurement": "Test G control value", "setting": "Plasmopara viticola; [13]", "result": "L (50% or less control value)"}, {"measurement": "Test C control value", "setting": "Alternaia brassicicola; [11]", "result": "L (50% or less control value)"}, {"measurement": "Test E control value", "setting": "Puccinia recondita; [11]", "result": "L (50% or less control value)"}, {"measurement": "Test B control value", "setting": "Botrytis cinerea; [11]", "result": "L (50% or less control value)"}, {"measurement": "Test F control value", "setting": "Phytophthora infestans; [11]", "result": "L (50% or less control value)"}, {"measurement": "Test A control value", "setting": "Magnaporthe grisea; [11]", "result": "L (50% or less control value)"}]}
{"smiles": "CCn1c(-c2ccc(F)cc2)c(C(O)C(C)C)cc(Cl)c1=O", "note": "(centres unmarked) [compound 211]", "values": [{"measurement": "Test D control value", "setting": "[1]; [3]", "result": "L (50% or less control value)"}, {"measurement": "Test H control value", "setting": "[2]; [4]", "result": "L (50% or less control value)"}, {"measurement": "Test G control value", "setting": "Plasmopara viticola; [5]", "result": "L (50% or less control value)"}, {"measurement": "Test C control value", "setting": "Alternaia brassicicola; [6]", "result": "H (more than 50% control value)"}, {"measurement": "Test E control value", "setting": "Puccinia recondita; [7]", "result": "H (more than 50% control value)"}, {"measurement": "Test B control value", "setting": "Botrytis cinerea; [8]", "result": "H (more than 50% control value)"}, {"measurement": "Test F control value", "setting": "Phytophthora infestans; [9]", "result": "L (50% or less control value)"}, {"measurement": "Test A control value", "setting": "Magnaporthe grisea; [10]", "result": "L (50% or less control value)"}]}
{"smiles": "CCc1ccc(=O)n(CC)c1-c1ccc(F)cc1Cl", "note": "[compound 185]", "values": [{"measurement": "Test D control value", "setting": "[1]; [3]", "result": "H (more than 50% control value)"}, {"measurement": "Test H control value", "setting": "[2]; [4]", "result": "L (50% or less control value)"}, {"measurement": "Test G control value", "setting": "Plasmopara viticola; [5]", "result": "L (50% or less control value)"}, {"measurement": "Test C control value", "setting": "Alternaia brassicicola; [6]", "result": "H (more than 50% control value)"}, {"measurement": "Test E control value", "setting": "Puccinia recondita; [7]", "result": "H (more than 50% control value)"}, {"measurement": "Test B control value", "setting": "Botrytis cinerea; [8]", "result": "H (more than 50% control value)"}, {"measurement": "Test F control value", "setting": "Phytophthora infestans; [9]", "result": "L (50% or less control value)"}, {"measurement": "Test A control value", "setting": "Magnaporthe grisea; [10]", "result": "L (50% or less control value)"}]}
